In general, inhibition refers to the percentage by which the read-out fell short of the control. A high value points to strong suppression.

The text below walks through data of patent publication US9567302B2, “Carbamate compounds and of making and using same” (Abide Therapeutics, Inc., priority 2012, dated 2017).

Holding throughout (assay type): biochemical
Common to all, as to set-up: from tissue

One test deals with T1, ABHD6 (Mus musculus, UniProt Q8R2Y0).
T1 sequence (Q8R2Y0 1-336): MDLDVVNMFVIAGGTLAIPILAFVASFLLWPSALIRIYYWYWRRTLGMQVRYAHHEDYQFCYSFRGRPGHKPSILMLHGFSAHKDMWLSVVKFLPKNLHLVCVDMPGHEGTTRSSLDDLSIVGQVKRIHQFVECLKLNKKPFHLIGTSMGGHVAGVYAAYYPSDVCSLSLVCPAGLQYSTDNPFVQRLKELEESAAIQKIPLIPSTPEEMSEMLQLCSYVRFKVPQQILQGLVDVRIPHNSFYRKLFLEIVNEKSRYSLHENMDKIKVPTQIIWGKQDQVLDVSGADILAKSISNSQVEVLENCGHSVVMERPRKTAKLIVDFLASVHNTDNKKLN
Put plainly: In vitro competitive ABPP, % inhibition at fixed concentration, ABHD6. Put shortly: (§1)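 Mouse brain membrane proteome or cell lysate at 1.0 mg/ml was preincubated with inhibitor for 30 min at 37° C, then labelled with FP-Rh for another 30 min. After SDS-PAGE, activity was quantified from the fluorescent intensity of the MAGL, ABHD6 and FAAH bands.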

The target in the next test is T2, FAAH (Mus musculus, UniProt O08914).
T2 sequence (O08914 1-579): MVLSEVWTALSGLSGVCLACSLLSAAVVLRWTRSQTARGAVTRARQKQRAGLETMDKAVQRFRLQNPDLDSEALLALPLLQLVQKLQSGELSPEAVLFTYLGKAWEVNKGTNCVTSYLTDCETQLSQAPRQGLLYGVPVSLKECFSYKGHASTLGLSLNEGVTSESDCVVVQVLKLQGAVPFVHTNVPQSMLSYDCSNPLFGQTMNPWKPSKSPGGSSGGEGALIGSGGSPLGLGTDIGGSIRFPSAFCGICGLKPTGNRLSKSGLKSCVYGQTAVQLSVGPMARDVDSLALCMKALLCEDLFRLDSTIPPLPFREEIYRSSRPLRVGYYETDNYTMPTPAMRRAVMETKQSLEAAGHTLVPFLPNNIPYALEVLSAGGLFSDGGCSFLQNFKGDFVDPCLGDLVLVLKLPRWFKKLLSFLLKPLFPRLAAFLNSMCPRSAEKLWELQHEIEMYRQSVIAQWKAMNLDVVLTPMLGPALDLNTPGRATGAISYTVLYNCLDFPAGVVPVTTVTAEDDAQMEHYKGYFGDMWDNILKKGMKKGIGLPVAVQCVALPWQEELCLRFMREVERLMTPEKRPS
Nature of the test: In vitro competitive ABPP, % inhibition at fixed concentration, FAAH. Summed up:
as §1

A further test deals with T3, MAGL (Mus musculus, UniProt O35678).
T3 sequence (O35678 1-303): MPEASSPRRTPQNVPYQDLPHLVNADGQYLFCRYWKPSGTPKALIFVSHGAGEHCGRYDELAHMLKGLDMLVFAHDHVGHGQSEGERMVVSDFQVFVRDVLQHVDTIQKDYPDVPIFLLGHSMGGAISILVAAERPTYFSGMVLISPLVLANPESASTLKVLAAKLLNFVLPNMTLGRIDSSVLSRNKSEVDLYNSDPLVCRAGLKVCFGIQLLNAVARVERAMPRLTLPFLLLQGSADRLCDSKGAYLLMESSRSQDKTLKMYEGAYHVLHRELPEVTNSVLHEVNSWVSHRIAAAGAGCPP
Put plainly: In vitro competitive ABPP, % inhibition at fixed concentration, MAGL. Put shortly:
as §1

In the case of `O=C(ON1C(=O)CCC1=O)N1CCN(Cc2ccc(-c3ccccc3)cc2F)CC1` [Example 164, 2,5-Dioxopyrrolidin-1-yl 4-[(2-fluoro-4-phenylphenyl)methyl]piperazine-1-carboxylate], the inhibition at 1 µM at ABHD6 was greater than 75%; at FAAH, less than 25%; on MAGL, greater than 75%.
With `Cc1cc(-c2ccc(CN3CCN(C(=O)ON4C(=O)CCC4=O)CC3)c(F)c2)ccn1` [Example 166, 2,5-Dioxopyrrolidin-1-yl 4-{[2-fluoro-4-(2-methylpyridin-4-yl)phenyl]methyl}piperazine-1-carboxylate], the inhibition at 1 µM was greater than 75% on ABHD6, less than 25% at FAAH and 25 to 75% at MAGL.
For `COc1cc(-c2ccccc2)ccc1CN1CCN(C(=O)ON2C(=O)CCC2=O)CC1` [Example 167, 2,5-Dioxopyrrolidin-1-yl 4-[(2-methoxy-4-phenylphenyl)methyl]piperazine-1-carboxylate], in that order: 25 to 75%, less than 25% and greater than 75%.
For `O=C(ON1C(=O)CCC1=O)N1CCN(Cc2ccc(-c3cccc(F)c3)cn2)CC1` [Example 168, 2,5-Dioxopyrrolidin-1-yl 4-{[5-(3-fluorophenyl)pyridin-2-yl]methyl}piperazine-1-carboxylate], in that order: 25 to 75%, less than 25% and 25 to 75%.
The matching figures for `Cc1cccc(-c2ccc(CN3CCN(C(=O)ON4C(=O)CCC4=O)CC3)c(Oc3ccccc3)c2)c1` [Example 169, 2,5-Dioxopyrrolidin-1-yl 4-{[4-(3-methylphenyl)-2-phenoxyphenyl]methyl}piperazine-1-carboxylate]: greater than 75%, less than 25% and 25 to 75%.
Take `Cc1cc(-c2cccnc2C)ccc1CN1CCN(C(=O)ON2C(=O)CCC2=O)CC1` [Example 170, 2,5-Dioxopyrrolidin-1-yl 4-{[2-methyl-4-(2-methylpyridin-3-yl)phenyl]methyl}piperazine-1-carboxylate]: the inhibition at 1 µM was 25 to 75% at ABHD6, less than 25% at FAAH and 25 to 75% at MAGL.
Take `Cc1cc(-c2ccncc2C)ccc1CN1CCN(C(=O)ON2C(=O)CCC2=O)CC1` [Example 171, 2,5-Dioxopyrrolidin-1-yl 4-{[2-methyl-4-(3-methylpyridin-4-yl)phenyl]methyl}piperazine-1-carboxylate]: the inhibition at 1 µM at ABHD6 is 25 to 75%; at FAAH it was less than 25%; on MAGL, 25 to 75%.
Consider `Cc1cc(-c2cccnc2)ccc1CN1CCN(C(=O)ON2C(=O)CCC2=O)CC1` [Example 172, 2,5-Dioxopyrrolidin-1-yl 4-{[2-methyl-4-(pyridin-3-yl)phenyl]methyl}piperazine-1-carboxylate], for which the results for the inhibition at 1 µM on ABHD6, on FAAH and at MAGL were 25 to 75%, less than 25% and 25 to 75%, respectively.
As to `Cc1cccc(-c2ccc(CN3CCN(C(=O)ON4C(=O)CCC4=O)CC3)c(C)c2)n1` [Example 173, 2,5-Dioxopyrrolidin-1-yl 4-{[2-methyl-4-(6-methylpyridin-2-yl)phenyl]methyl}piperazine-1-carboxylate], the inhibition at 1 µM at ABHD6 is 25 to 75%; at FAAH, less than 25%; on MAGL, 25 to 75%.
As to `Cc1ncccc1-c1ccc(CN2CCN(C(=O)ON3C(=O)CCC3=O)CC2)c(F)c1` [Example 174, 2,5-Dioxopyrrolidin-1-yl 4-{[2-fluoro-4-(2-methylpyridin-3-yl)phenyl]methyl}piperazine-1-carboxylate], the inhibition at 1 µM is 25 to 75% at ABHD6, less than 25% on FAAH and 25 to 75% on MAGL.
For the molecule `Cc1cccc(-c2ccc(CN3CCN(C(=O)ON4C(=O)CCC4=O)CC3)c(F)c2)n1` [Example 175, 2,5-Dioxopyrrolidin-1-yl 4-{[2-fluoro-4-(6-methylpyridin-2-yl)phenyl]methyl}piperazine-1-carboxylate], the results for the inhibition at 1 µM on ABHD6, at FAAH and at MAGL were 25 to 75%, less than 25% and 25 to 75%, respectively.
`Cc1cc(-c2ccc(CN3CCN(C(=O)ON4C(=O)CCC4=O)CC3)c(F)c2)cc(C)n1` [Example 176, 2,5-Dioxopyrrolidin-1-yl 4-{[4-(2,6-dimethylpyridin-4-yl)-2-fluorophenyl]methyl}piperazine-1-carboxylate]: the inhibition at 1 µM on ABHD6 is 25 to 75%; at FAAH it was less than 25%; at MAGL it was 25 to 75%.
As to `Cc1cnccc1-c1ccc(CN2CCN(C(=O)ON3C(=O)CCC3=O)CC2)c(F)c1` [Example 177, 2,5-Dioxopyrrolidin-1-yl 4-{[2-fluoro-4-(3-methylpyridin-4-yl)phenyl]methyl}piperazine-1-carboxylate], the inhibition at 1 µM at ABHD6 was greater than 75%; at FAAH, less than 25%; at MAGL, 25 to 75%.
For `Cc1nc(CN2CCN(C(=O)ON3C(=O)CCC3=O)CC2)ccc1-c1ccccc1F` [Example 178, 2,5-Dioxopyrrolidin-1-yl 4-{[5-(2-fluorophenyl)-6-methylpyridin-2-yl]methyl}piperazine-1-carboxylate], in that order: 25 to 75%, less than 25% and 25 to 75%.
For `Cc1ccccc1-c1ccc(CN2CCN(C(=O)ON3C(=O)CCC3=O)CC2)nc1C` [Example 179, 2,5-Dioxopyrrolidin-1-yl 4-{[6-methyl-5-(2-methylphenyl)pyridin-2-yl]methyl}piperazine-1-carboxylate], in that order: 25 to 75%, less than 25% and 25 to 75%.
For `Cc1cccc(-c2ccc(CN3CCN(C(=O)ON4C(=O)CCC4=O)CC3)nc2C)c1` [Example 180, 2,5-Dioxopyrrolidin-1-yl 4-{[6-methyl-5-(3-methylphenyl)pyridin-2-yl]methyl}piperazine-1-carboxylate], in that order: greater than 75%, less than 25% and greater than 75%.
For the molecule `Cc1nc(CN2CCN(C(=O)ON3C(=O)CCC3=O)CC2)ccc1-c1cccc(F)c1` [Example 181, 2,5-Dioxopyrrolidin-1-yl 4-{[5-(3-fluorophenyl)-6-methylpyridin-2-yl]methyl}piperazine-1-carboxylate], the inhibition at 1 µM on ABHD6 is less than 25%; on FAAH it was less than 25%; on MAGL, 25 to 75%.
With `Cc1ccccc1-c1ccc(CN2CCN(C(=O)ON3C(=O)CCC3=O)CC2)c(C)n1` [Example 182, 2,5-Dioxopyrrolidin-1-yl 4-{[2-methyl-6-(2-methylphenyl)pyridin-3-yl]methyl}piperazine-1-carboxylate], the results for the inhibition at 1 µM on ABHD6, on FAAH and at MAGL were greater than 75%, less than 25% and 25 to 75%, respectively.
Take `Cc1nc(-c2ccccc2F)ccc1CN1CCN(C(=O)ON2C(=O)CCC2=O)CC1` [Example 183, 2,5-Dioxopyrrolidin-1-yl 4-{[6-(2-fluorophenyl)-2-methylpyridin-3-yl]methyl}piperazine-1-carboxylate]: the figures for the inhibition at 1 µM at ABHD6, at FAAH and on MAGL were greater than 75%, less than 25% and 25 to 75%, respectively.
The matching figures for `Cc1cccc(-c2ccc(CN3CCN(C(=O)ON4C(=O)CCC4=O)CC3)c(C)n2)c1` [Example 184, 2,5-Dioxopyrrolidin-1-yl 4-{[2-methyl-6-(3-methylphenyl)pyridin-3-yl]methyl}piperazine-1-carboxylate]: 25 to 75%, less than 25% and greater than 75%.
The matching figures for `Cc1nc(-c2cccc(F)c2)ccc1CN1CCN(C(=O)ON2C(=O)CCC2=O)CC1` [Example 185, 2,5-Dioxopyrrolidin-1-yl 4-{[6-(3-fluorophenyl)-2-methylpyridin-3-yl]methyl}piperazine-1-carboxylate]: greater than 75%, less than 25% and greater than 75%.
